Data published in patent US10113155B2, “Steviol glycosyltransferase and gene encoding same” (SUNTORY HOLDINGS LIMITED, priority 2012, dated 2018).

B1: UGT73E1: reported stevia glycosyltransferase, 98% identical to UGT73E1 homologous protein 1 (protein, UniProt Q6VAA9 1-495, looked up)
UDP-glycosyltransferase 73E1: MSPKMVAPPTNLHFVLFPLMAQGHLVPMVDIARILAQRGATVTIITTPYHANRVRPVISRAIATNLKIQLLELQLRSTEAGLPEGCESFDQLPSFEYWKNISTAIDLLQQPAEDLLRELSPPPDCIISDFLFPWTTDVARRLNIPRLVFNGPGCFYLLCIHVAITSNILGENEPVSSNTERVVLPGLPDRIEVTKLQIVGSSRPANVDEMGSWLRAVEAEKASFGIVVNTFEELEPEYVEEYKTVKDKKMWCIGPVSLCNKTGPDLAERGNKAAITEHNCLKWLDERKLGSVLYVCLGSLARISAAQAIELGLGLESINRPFIWCVRNETDELKTWFLDGFEERVRDRGLIVHGWAPQVLILSHPTIGGFLTHCGWNSTIESITAGVPMITWPFFADQFLNEAFIVEVLKIGVRIGVERACLFGEEDKVGVLVKKEDVKKAVECLMDEDEDGDQRRKRVIELAKMAKIAMAEGGSSYENVSSLIRDVTETVRAPH

Columns and labels:
[1] = target: T1, UGT73E1 homologous protein 1 (Stevia rebaudiana, UniProt Q6VAA9); test: Enzyme activity of UGT73E1 homologous protein 1: glucosylation of sugar acceptor substrates, LC-MS analysis; format: biochemical; settings: for products found in the reaction solution with UGT73E1 homologous protein 1: 2 mM UDP-glucose, 0.1 mM sugar acceptor substrate, potassium phosphate buffer pH 7.0, 30° C., 1 hour
T1 construct: designed to carry the open reading frame of the UGT73E1 homologous protein 1 gene in frame with a His tag; made in house; host or cells: E. coli BL21(DE3)
T1 sequence (Q6VAA9 whole entry H50D/D106H/L131W/P152K/L157P/I160M/V199L/A305T/L422S): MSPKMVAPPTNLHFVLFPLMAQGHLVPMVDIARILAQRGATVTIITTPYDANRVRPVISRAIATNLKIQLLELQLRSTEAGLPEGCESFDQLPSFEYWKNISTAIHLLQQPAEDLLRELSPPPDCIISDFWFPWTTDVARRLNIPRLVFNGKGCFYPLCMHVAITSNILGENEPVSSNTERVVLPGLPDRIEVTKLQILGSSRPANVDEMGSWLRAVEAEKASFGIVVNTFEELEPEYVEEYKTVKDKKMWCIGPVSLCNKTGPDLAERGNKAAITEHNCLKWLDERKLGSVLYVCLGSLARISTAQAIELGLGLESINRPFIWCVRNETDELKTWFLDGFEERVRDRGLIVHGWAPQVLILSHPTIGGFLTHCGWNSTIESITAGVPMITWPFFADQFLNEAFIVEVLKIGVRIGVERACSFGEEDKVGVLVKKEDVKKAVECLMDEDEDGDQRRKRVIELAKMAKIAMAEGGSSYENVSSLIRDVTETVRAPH
Experimental: Standard enzyme reaction conditions are as follows. A reaction solution (2 mM UDP-glucose, 0.1 mM sugar acceptor substrate (steviol), 100 mM potassium phosphate buffer (pH 7.0), 25 μl purified UGT73E1 homologous protein 1 enzyme solution) was prepared in a volume of 50 μl with distilled water and reacted at 30° C. for 1 hour. The enzyme reaction solution (5 μl) was analyzed by LC-MS under the following conditions.
Column: Waters Sunfire C18 3.5 um (2.0 mm I.D.×20 mm)
Mobile phase: A: MilliQ Water (+0.05% formic acid), B: MeCN
Gradient: linear concentration gradient of B from 15% to 55% over 20 minutes
Flow rate: 0.2 ml per minute

[2] = reported in previous studies (Non-patent Document 2); cited from earlier work

Molecule	products found in the reaction solution with UGT73E1 homologous protein 1 [1]	stevioside peak in the reaction solution with UGT73E1 homologous protein 1 ([1]; substrate reacted with UGT73E1 homologous protein 1)	glycosylation activity on steviol glycosides [2]
C=C1C[C@@]23CC[C@H]4[C@@](C)(CCC[C@@]4(C)C(=O)O[C@@H]4O[C@H](CO)[C@@H](O)[C@H](O)[C@H]4O)[C@@H]2CC[C@]1(O[C@@H]1O[C@H](CO)[C@@H](O)[C@H](O)[C@H]1O)C3 [rubusoside]	Compound Z which appears to be a triglucoside of steviol was newly generated	no significant stevioside peak can be found	
C=C1C[C@@]23CC[C@H]4[C@@](C)(CCC[C@@]4(C)C(=O)O)[C@@H]2CC[C@]1(O[C@@H]1O[C@H](CO)[C@@H](O)[C@H](O)[C@H]1O[C@@H]1O[C@H](CO)[C@@H](O)[C@H](O)[C@H]1O)C3 [steviolbioside]	a product which appears to be stevioside (peak F) was also detected		
C=C1C[C@@]23CC[C@H]4[C@@](C)(CCC[C@@]4(C)C(=O)O)[C@@H]2CC[C@]1(O)C3 (single isomer, unassigned) [steviol]	four types of products were newly found		
C=C1C[C@@]23CC[C@H]4[C@@](C)(CCC[C@@]4(C)C(=O)O)[C@@H]2CC[C@]1(O[C@@H]1O[C@H](CO)[C@@H](O)[C@H](O)[C@H]1O)C3 [steviolmonoside]	two peaks (peak E and peak F) were newly obtained		
B1			no glycosylation activity on steviol glycosides
